Results taken from patent publication US20120028929A1, “TETRACYCLINE STABILIZING FORMULATIONS” (ALACRITY BIOSCIENCE, INC., priority 2008, published 2012).
Several values for one entry are separate records, joined by “and”; a condition that tells them apart may be missing. Equal values may be shown once.

Columns and labels:
[1] = Combinatorial effect of antioxidants and tonicity adjustment agents in doxycycline stability; type: physicochemical; details: for doxycycline stability 5 Wks / doxycycline stability 8 Wks / doxycycline stability 12 Wks / doxycycline stability 2 Wks / doxycycline stability Init.: HPMC
Source text: (§1) Standard methods known in the art are used for monitoring the degradation of tetracycline into its epimers or degradation products. For example, one method for monitoring tetracycline degradation is an analytical technique using chromatography, e.g. high pressure liquid chromatography (HPLC), to separate the various degradants, e.g. epimers and other degradants, and a sensitive detector to identify and quantify the concentrations of the drug and degradants over time.

[2] = Multi-dimensional parametric testing of doxycycline stability in aqueous solution; type: physicochemical; details: for doxycycline stability t = 0 / doxycycline stability 2 wks / doxycycline stability 4 wks: 250 μg/mL; for degradation: 2 weeks
Source text: as §1
A multi-dimensional parametric test on doxycycline stability was conducted to study the effect of pH, storage temperature and the presence of various chemical agents.

[3] = type: physicochemical
Experimental: The rate of doxycycline epimerization increased with temperature and time (see Table 7). […] Long-term storage (more than 18 months) should therefore be at refrigeration temperatures (2-8° C.) to minimize conversion of doxycycline to its epimers.
After 12 months of storage at 5° C., about 0.0014% w/w of the doxycycline in solution was lost to degradation. That is, original doxycyline concentration was 0.025% w/w and concentration after 12 months was 0.0236% w/w, corresponding to 94.4% Label Claim (LC).
The epimerization of doxycycline into 4-epidoxycycline is reversible, and the rate of 4-epidoxycycline formation is related to the kinetic equilibrium between the two compounds. Therefore, one method for specifically reducing the rate of doxycycline epimerization into 4-epidoxycycline is to fortify the formulation with 4-epidoxycycline.

[4] = Edetate Disodium 0.1%, Sodium Metabisulfite 0.1%, Sodium Thiosulfate 0.2%, Glycerin (167 mOsm/kg), 5° C.
[5] = Edetate Disodium 0.1%, Sodium Metabisulfite 0.1%, Sodium Thiosulfate 0.2%, Glycerin (167 mOsm/kg), 25° C.
[6] = Edetate Disodium 0.2%, Sodium Metabisulfite 0.2%, Sodium Thiosulfate 0.3%, Glycerin (287 mOsm/kg), 5° C.
[7] = Edetate Disodium 0.2%, Sodium Metabisulfite 0.2%, Sodium Thiosulfate 0.3%, Glycerin (287 mOsm/kg), 25° C.
[8] = Edetate Disodium 0.2%, Sodium Metabisulfite 0.2%, Sodium Thiosulfate 0.3%, Glycerin (287 mOsm/kg), 40° C.
[9] = Edetate Disodium 0.2%, Sodium Metabisulfite 0.2%, Sodium Thiosulfate 0.3%, NaCl (330 mOsm/kg), 5° C.
[10] = Disodium Edetate, pH 5.3, 5° C.
[11] = Disodium Edetate, pH 5.3, 25° C.
[12] = Sodium Metabisulfite, pH 5.3, 5° C.
[13] = Sodium Metabisulfite, pH 5.3, 25° C.
[14] = Sodium Thiosulfate, pH 5.3, 5° C.
[15] = Sodium Thiosulfate, pH 5.3, 25° C.

Structure (SMILES): C[C@H]1c2cccc(O)c2C(=O)C2=C(O)[C@]3(O)C(=O)C(C(N)=O)=C(O)[C@@H](N(C)C)[C@@H]3[C@@H](O)[C@@H]21 [doxycycline]
- degradation ([1]; 0.025% w/w doxycycline, edetate, metabisulfite, thiosulfate, phosphate-citrate buffer, glycerin, pH 5.2-5.8, 12 weeks at 5° C.): no detectable degradation
- doxycycline stability 5 Wks [1, 4]: 102.8%
- doxycycline stability 8 Wks [1, 4]: 100.6%
- doxycycline stability 12 Wks [1, 4]: 99.4%
- doxycycline stability 5 Wks [1, 5]: 97.0%
- doxycycline stability 8 Wks [1, 5]: 90.4%
- doxycycline stability 12 Wks [1, 5]: 85.1%
- doxycycline stability 5 Wks ([1]; Edetate Disodium 0.1%, Sodium Metabisulfite 0.1%, Sodium Thiosulfate 0.2%, Glycerin (167 mOsm/kg), 40° C.): 58.2%
- doxycycline stability 5 Wks ([1]; Edetate Disodium 0.1%, Sodium Metabisulfite 0.1%, Sodium Thiosulfate 0.2%, NaCl (325 mOsm/kg), 5° C.): 103.6%
- doxycycline stability 5 Wks ([1]; Edetate Disodium 0.1%, Sodium Metabisulfite 0.1%, Sodium Thiosulfate 0.2%, NaCl (325 mOsm/kg), 25° C.): 96.6%
- doxycycline stability 5 Wks ([1]; Edetate Disodium 0.1%, Sodium Metabisulfite 0.1%, Sodium Thiosulfate 0.2%, NaCl (325 mOsm/kg), 40° C.): 55.8%
- doxycycline stability 5 Wks ([1]; Edetate Disodium 0.1%, Sodium Metabisulfite 0.1%, Glycerin (138 mOsm/kg), 5° C.): 94.6%
- doxycycline stability 5 Wks ([1]; Edetate Disodium 0.1%, Sodium Metabisulfite 0.1%, Glycerin (138 mOsm/kg), 25° C.): 84.9%
- doxycycline stability 5 Wks ([1]; Edetate Disodium 0.1%, Sodium Metabisulfite 0.1%, Glycerin (138 mOsm/kg), 40° C.): 47.1%
- doxycycline stability 5 Wks ([1]; Edetate Disodium 0.1%, Sodium Metabisulfite 0.1%, NaCl (305 mOsm/kg), 5° C.): 90.6%
- doxycycline stability 5 Wks ([1]; Edetate Disodium 0.1%, Sodium Metabisulfite 0.1%, NaCl (305 mOsm/kg), 25° C.): 81.8%
- doxycycline stability 5 Wks ([1]; Edetate Disodium 0.1%, Sodium Metabisulfite 0.1%, NaCl (305 mOsm/kg), 40° C.): 46.5%
- doxycycline stability 2 Wks [1, 6]: 103.0%
- doxycycline stability 5 Wks [1, 6]: 101.2%
- doxycycline stability 8 Wks [1, 6]: 100.6%
- doxycycline stability 12 Wks [1, 6]: 100.4%
- doxycycline stability Init. [1, 6]: 103.2%
- doxycycline stability 2 Wks [1, 7]: 101.0%
- doxycycline stability 5 Wks [1, 7]: 93.3%
- doxycycline stability 8 Wks [1, 7]: 85.2%
- doxycycline stability 12 Wks [1, 7]: 84.8%
- doxycycline stability 2 Wks [1, 8]: 80.3%
- doxycycline stability 5 Wks [1, 8]: 55.1%
- doxycycline stability 2 Wks [1, 9]: 103.0%
- doxycycline stability Init. [1, 9]: 103.4%
- doxycycline stability 2 Wks ([1]; Edetate Disodium 0.2%, Sodium Metabisulfite 0.2%, Sodium Thiosulfate 0.3%, NaCl (330 mOsm/kg), 25° C.): 100.6%
- doxycycline stability 2 Wks ([1]; Edetate Disodium 0.2%, Sodium Metabisulfite 0.2%, Sodium Thiosulfate 0.3%, NaCl (330 mOsm/kg), 40° C.): 79.9%
- doxycycline stability t = 0 ([2]; Disodium Edetate, pH 5.3): 100%
- doxycycline stability 2 wks [2, 10]: 99%
- doxycycline stability 4 wks [2, 10]: 96%
- doxycycline stability 2 wks [2, 11]: 97%
- doxycycline stability 4 wks [2, 11]: 88%
- doxycycline stability 2 wks ([2]; Disodium Edetate, pH 5.3, 40° C.): 24%
- doxycycline stability t = 0 ([2]; Disodium Edetate, pH 7): 100%
- doxycycline stability 2 wks ([2]; Disodium Edetate, pH 7, 5° C.): 96%
- doxycycline stability 2 wks ([2]; Disodium Edetate, pH 7, 25° C.): 55%
- doxycycline stability 2 wks ([2]; Disodium Edetate, pH 7, 40° C.): 4%
- doxycycline stability t = 0 ([2]; None (no antioxidant/chelating agent), pH 5.3): 100%
- doxycycline stability 2 wks ([2]; None, pH 5.3, 5° C.): 96%
- doxycycline stability 4 wks ([2]; None, pH 5.3, 5° C.): 93%
- doxycycline stability 2 wks ([2]; None, pH 5.3, 25° C.): 73%
- doxycycline stability 4 wks ([2]; None, pH 5.3, 25° C.): 59%
- doxycycline stability 2 wks ([2]; None, pH 5.3, 40° C.): 19%
- doxycycline stability t = 0 ([2]; None, pH 7): 100%
- doxycycline stability 2 wks ([2]; None, pH 7, 5° C.): 94%
- doxycycline stability 2 wks ([2]; None, pH 7, 25° C.): 49%
- doxycycline stability 2 wks ([2]; None, pH 7, 40° C.): 11%
- doxycycline stability t = 0 ([2]; Sodium Bisulfite, pH 5.3): 100%
- doxycycline stability 2 wks ([2]; Sodium Bisulfite, pH 5.3, 5° C.): 88%
- doxycycline stability 2 wks ([2]; Sodium Bisulfite, pH 5.3, 25° C.): 72%
- doxycycline stability 2 wks ([2]; Sodium Bisulfite, pH 5.3, 40° C.): 57%
- doxycycline stability t = 0 ([2]; Sodium Bisulfite, pH 7): 100%
- doxycycline stability 2 wks ([2]; Sodium Bisulfite, pH 7, 5° C.): 91%
- doxycycline stability 2 wks ([2]; Sodium Bisulfite, pH 7, 25° C.): 83%
- doxycycline stability 2 wks ([2]; Sodium Bisulfite, pH 7, 40° C.): 48%
- doxycycline stability t = 0 ([2]; Sodium Metabisulfite, pH 5.3): 100%
- doxycycline stability 2 wks [2, 12]: 99%
- doxycycline stability 4 wks [2, 12]: 97%
- doxycycline stability 2 wks [2, 13]: 92%
- doxycycline stability 4 wks [2, 13]: 90%
- doxycycline stability 2 wks ([2]; Sodium Metabisulfite, pH 5.3, 40° C.): 59%
- doxycycline stability t = 0 ([2]; Sodium Metabisulfite, pH 7): 100%
- doxycycline stability 2 wks ([2]; Sodium Metabisulfite, pH 7, 5° C.): 97%
- doxycycline stability 2 wks ([2]; Sodium Metabisulfite, pH 7, 25° C.): 86%
- doxycycline stability 2 wks ([2]; Sodium Metabisulfite, pH 7, 40° C.): 51%
- doxycycline stability t = 0 ([2]; Sodium Thiosulfate, pH 5.3): 100%
- doxycycline stability 2 wks [2, 14]: 99%
- doxycycline stability 4 wks [2, 14]: 99%
- doxycycline stability 2 wks [2, 15]: 95%
- doxycycline stability 4 wks [2, 15]: 93%
- doxycycline stability 2 wks ([2]; Sodium Thiosulfate, pH 5.3, 40° C.): 67%
- doxycycline stability t = 0 ([2]; Sodium Thiosulfate, pH 7): 100%
- doxycycline stability 2 wks ([2]; Sodium Thiosulfate, pH 7, 5° C.): 96%
- doxycycline stability 2 wks ([2]; Sodium Thiosulfate, pH 7, 25° C.): 91%
- doxycycline stability 2 wks ([2]; Sodium Thiosulfate, pH 7, 40° C.): 7%
- doxycycline stability t = 0 ([2]; Thiourea, pH 5.3): 100%
- doxycycline stability 2 wks ([2]; Thiourea, pH 5.3, 5° C.): 98%
- doxycycline stability 2 wks ([2]; Thiourea, pH 5.3, 25° C.): 80%
- doxycycline stability 2 wks ([2]; Thiourea, pH 5.3, 40° C.): 22%
- doxycycline stability t = 0 ([2]; Thiourea, pH 7): 100%
- doxycycline stability 2 wks ([2]; Thiourea, pH 7, 5° C.): 98%
- doxycycline stability 2 wks ([2]; Thiourea, pH 7, 25° C.): 74%
- doxycycline stability 2 wks ([2]; Thiourea, pH 7, 40° C.): 9%
- degradation ([2]; aqueous solution, neutral pH, 5° C., no additive): 6%
- degradation ([2]; aqueous solution, neutral pH, room temperature (RT), no additive): 51%
- degradation ([2]; aqueous solution, neutral pH, room temperature (RT), no additive, listed as doxcycline): about 51%
- degradation ([2]; pH 5.3, RT, addition of edetate disodium): 3%
- degradation ([2]; pH 5.3, RT, addition of sodium bisulfate): 28%
- degradation ([2]; pH 5.3, RT, addition of sodium metabisulfite): 8%
- degradation ([2]; pH 5.3, RT, addition of sodium thiosulfate): 5%
- degradation ([2]; pH 5.3, RT, addition of thiourea): 20%
- degradation ([2]; pH 5.3, RT, no additive): 28% and 27%
- effect of fortifying with 4-epidoxycycline on degradation [3]: reduced degradation of doxycycline during storage
- share of degradation by epimerization into 4-epidoxycycline [3]: over half of the degradation
- doxycycline in solution lost to degradation ([3]; 12 months, 0.025 % w/w): about 0.0014 % w/w
- route of doxycycline degradation ([3]; 12 months, 0.025 % w/w): practically all of the degradation of doxycycline at 5 °C was through conversion into 4-epidoxycycline
